# Article PMC8175350, “Drug repurposing screens identify chemical entities for the development of COVID-19 interventions” (Nature Communications, 2021)
# Read-outs that look alike come from different tables or passages of the source.
# What was measured:
# [1] = Uninfected HeLa-ACE2 24 h live/dead cytotoxicity counter screen; format: cell-based, human; conditions: human, uninfected HeLa-ACE2 cells; read-out: HeLa-ACE2 uninfected cytotoxicity CC50 GeoMean
# HeLa-ACE2 cells [2] = assay: as above; format: cell-based, human; conditions: curve plateau at infinite concentration
# HepG2 = HepG2 72 h CellTiter-Glo cytotoxicity; conditions: 72 h
# HEK293T = HEK293T 72 h CellTiter-Glo cytotoxicity; conditions: 72 h
# HeLa-ACE2 cells [3] = assay: Total cell count in the HeLa-ACE2 TOA assay; format: cell-based; conditions: Homo sapiens
# From the text: Supplement 41467_2021_23328_MOESM3_ESM.xlsx, sheet "Table S1" | column: HeLa-ACE2 TOA cell count
# SARS-CoV-2 [4] = format: cell-based; conditions: combination with remdesivir, synergy score δ
# HeLa-ACE2 cells [5] = assay: cells; conditions: Homo sapiens
# SARS-CoV-2 [6] = assay: microbe, parasite or virus in culture; format: cell-based
# SARS-CoV-2 [7] = assay: microbe, parasite or virus in culture; format: cell-based; remark: listed apart in the source
# in vitro = conditions: human, Calu-3 uninfected cytotoxicity CC50 GeoMean
# Calu-3 cells [8] = assay: Uninfected Calu-3 48 h Cell-Titer Glo cytotoxicity counter screen; conditions: curve plateau at infinite concentration
# SARS-CoV-2 [9] = assay: microbe, parasite or virus in culture; format: cell-based; remark: listed apart in the source
# Calu-3 cells [10] = assay: cells; conditions: Homo sapiens
smiles,measurement,setting,value
C=CC(=O)Nc1cc(Nc2nccc(-c3cn(C)c4ccccc34)n2)c(OC)cc1N(C)CCN(C)C [AZD-9291/Osimertinib],CC50 at 24 h,[1],> 18100 nM
same,HeLa-ACE2 uninfected cytotoxicity Sinf Average,HeLa-ACE2 cells [2],-100%
same,HepG2 72-hour cytotoxicity Sinf Average,HepG2,-107%
same,HEK293T 72-hour cytotoxicty Sinf Average,HEK293T,-103%
same,Emax,"HeLa-ACE2 cells [3]; HeLa-ACE2, 10 h, curve plateau at infinite concentration, read-out: HeLa-ACE2 TOA cell count Sinf Average",-100%
same,EC50,"HeLa-ACE2 cells [3]; HeLa-ACE2, read-out: HeLa-ACE2 TOA cell count EC50 GeoMean",> 9600 nM
same,HeLa-ACE2 synergy score with remdesivi [δ],SARS-CoV-2 [4],-0.722
same,Emax,"HeLa-ACE2 cells [5]; HeLa-ACE2, 24 h, read-out: HeLa-ACE2 cell count Sinf Average",98%
same,EC50,"HeLa-ACE2 cells [5]; HeLa-ACE2, read-out: HeLa-ACE2 cell count EC50 GeoMean",> 4230 nM
same,Emax,"SARS-CoV-2 [6]; Severe acute respiratory syndrome coronavirus 2, Calu-3, 48 h, curve plateau at infinite concentration, read-out: Calu-3 CoV-2 Sinf Average",100%
same,EC50,"SARS-CoV-2 [6]; Severe acute respiratory syndrome coronavirus 2, Calu-3, detail column, read-out: Calu-3 CoV-2 EC50 GeoMean",> 1590 nM
same,Emax,"SARS-CoV-2 [7]; Severe acute respiratory syndrome coronavirus 2, HeLa-ACE2, 24 h, curve plateau at infinite concentration, read-out: HeLa-ACE2 CoV-2 Sinf Average",100%
same,EC50,"SARS-CoV-2 [7]; Severe acute respiratory syndrome coronavirus 2, HeLa-ACE2, detail column, read-out: HeLa-ACE2 CoV-2 EC50 GeoMean",962 nM
same,CC50,in vitro,1690 nM
same,Calu-3 uninfected cytotoxicity Sinf Average,Calu-3 cells [8],-89%
same,Emax,"SARS-CoV-2 [9]; Severe acute respiratory syndrome coronavirus 2, HeLa-ACE2, 10 h, curve plateau at infinite concentration, read-out: HeLa-ACE2 TOA CoV-2 Sinf Average",100%
same,EC50,"SARS-CoV-2 [9]; Severe acute respiratory syndrome coronavirus 2, HeLa-ACE2, read-out: HeLa-ACE2 TOA CoV-2 EC50 GeoMean",> 7850 nM
same,Emax,"Calu-3 cells [10]; Calu-3, 48 h, read-out: Calu-3 cell count Sinf Average",-100%
same,EC50,"Calu-3 cells [10]; Calu-3, read-out: Calu-3 cell count EC50 GeoMean",> 9980 nM
